The source of these data is PubChem BioAssay (NCI).

Common to all, as to assay: NCI-60 cell line screen, 48 h
Assay [1] relates to CCRF-CEM leukemia.
Assay [2] concerns COLO 205 colon.
For assay [3], the system named is HCC-2998 colon.
Assay [4] deals with HCT-116 colon.
The subject of assay [5] is HL-60(TB) leukemia.
In assay [6] the test system is HS 578T breast.
Assay [7] has as its system IGROV1 ovarian.
Assay [8] deals with KM12 colon.
The test system of assay [9] is MALME-3M melanoma.
In assay [10] the test system is MDA-N.
For assay [11], the system named is NCI-H460 lung.
For assay [12], the system named is OVCAR-3 ovarian.
Assay [13] concerns OVCAR-4 ovarian.
Assay [14] relates to SK-MEL-5 melanoma.
For assay [15], the system named is SN12C renal.
The subject of assay [16] is SW-620 colon.
Assay [17] has as its system TK-10 renal.
Assay [18] has as its system UACC-257 melanoma.
In assay [19] the test system is UACC-62 melanoma.
Assay [20] has as its system BT-549 breast.

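Following 48 hours of exposure in 96-well plates, responses at five concentrations were used to interpolate endpoints linearly. Definition used: TGI = concentration required for complete inhibition of growth.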

Take `CCOC(=O)C(NC(C)=O)(Nc1ccc(S(N)(=O)=O)cc1)C(F)(F)F` (stereo not drawn): the TGI in [1], in assay [2], in assay [3], in [4], in [5] and in assay [6] was above 100 µM throughout. The TGI in [7], in assay [8], in assay [9], in assay [10], in assay [11] and in assay [12] was above 100 µM throughout. In addition, the TGI in assay [13], in assay [14], in [15], in assay [16], in [17] and in assay [18] was above 100 µM in each case.

`N#CC(C#N)=C/C=C/c1c(Cl)cccc1Cl`: the TGI in assay [1] was above 10 µM; in assay [2] it was 3.17 µM; in assay [3], 3.34 µM; in assay [4], 2.62 µM; in assay [5] it was 4.04 µM; in assay [6], 5.55 µM. Also, the TGI was found to be 4.27 µM in assay [7]; 3.02 µM in [8]; 3.15 µM in [9]; 3.23 µM in assay [10]; 4.08 µM in assay [11]; 5.67 µM in [12]. Also, the TGI was 3.49 µM in assay [13]; 3.28 µM in assay [14]; 3.9 µM in assay [15]; 4.21 µM in assay [16]; 6.24 µM in assay [17]; 2.99 µM in [18]. The same compound gave a TGI in assay [19] of 2.91 µM.

On to `CNC1c2ccccc2C(=O)c2cc3c(cc21)OCCOCCOCCOCCO3` (stereo not drawn), for which the TGI in [1] was 46.1 µM; in assay [2], above 100 µM; in assay [3], above 100 µM; in assay [4], above 100 µM; in [5] it was 66.6 µM; in [6], above 100 µM. The TGI in assay [7], in assay [8], in assay [10], in assay [11], in assay [13] and in assay [14] was above 100 µM throughout. Also, the TGI in assay [15], in assay [16], in assay [17] and in [18] was above 100 µM each time.

`CC(=O)Nc1cccc(N2C(=O)/C(=C\c3cccc(Oc4ccccc4)c3)S(=O)(=O)C2c2ccccc2)c1` (stereo not drawn): the TGI was above 100 µM in assay [20]; above 100 µM in assay [1]; above 100 µM in [2]; above 100 µM in [3]; above 100 µM in assay [4]; 50.4 µM in assay [5]. Besides, the TGI in assay [7], in [8], in assay [9], in [10], in assay [11] and in assay [12] was above 100 µM in each case. Besides, the TGI in assay [13], in assay [14], in [15], in assay [16], in assay [17] and in assay [18] was above 100 µM each time. In assay [19], this compound registered a TGI above 100 µM.

Turning to `CCOC(=O)Cn1c2ccc(Br)cc2c2nc3ccccc3nc21`, the TGI in assay [1], in assay [2], in [4], in assay [6], in [7] and in assay [8] was above 100 µM throughout. In addition, the TGI in [10], in assay [12], in [14], in assay [15], in assay [16] and in assay [17] was above 100 µM throughout. The TGI in assay [18] and in assay [19] was above 100 µM each time.

Turning to `CCOC(=O)Cc1nnc2n(-c3ccccc3)c(=O)c3ccccc3n12`, the TGI in assay [1], in assay [2], in assay [3], in assay [4], in assay [5] and in assay [7] was above 100 µM throughout. Also, the TGI in assay [8], in assay [9], in [10], in assay [11], in [12] and in [13] was above 100 µM each time. The TGI in assay [14], in assay [15], in [16], in assay [17], in assay [18] and in assay [19] was above 100 µM throughout.

In the case of `Cc1cc(=O)oc2c(CNC(CO)C(=O)O)c(O)ccc12` (stereo not drawn), the TGI in assay [1], in assay [2], in assay [4], in assay [5], in assay [6] and in assay [7] was above 100 µM in each case. For the same compound, the TGI in [8], in assay [9], in assay [10], in [11], in assay [12] and in [13] was above 100 µM in each case. Also, the TGI in assay [14], in [15], in [16], in [17], in assay [18] and in assay [19] was above 100 µM each time.

With `Cc1ccc(Cc2nn(C)c(=O)n2N)cc1`, the TGI in [20], in [2], in assay [3], in assay [4], in [7] and in [8] was above 100 µM throughout. Further, the TGI in [10], in [11], in assay [12], in assay [13], in [14] and in assay [15] was above 100 µM in each case. Besides, the TGI in assay [16], in [17], in [18] and in assay [19] was above 100 µM each time.
